Data: the supplement of paper PMC4858399
Structures can show the parent of a compound that is named as a salt.

Assays:
Conditions in all cases: exposure time 48 h
[1] = test system: Caenorhabditis elegans N2; test: mean nematode size ln(EXT) after 48 h, plate-adjusted (DMSO control set to 6) (ln(EXT), control-adjusted); higher = larger nematodes / less growth inhibition
Method in brief: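 Worms were measured individually for extinction on the Biosort after 48 h at 20°C. They began as synchronised C. elegans N2 L1 larvae in K-medium with killed OP50, 1% DMSO and 0.5–200 µM chemical. Once debris had been removed by a growth model, values were natural-logged and averaged per well to give mean size. The plate adjustment subtracted the vehicle control mean and added 6.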

[2] = test system: Caenorhabditis elegans N2; test: AC50 for larval growth inhibition (Hill fit); higher = less potent
Method in brief: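 Synchronised C. elegans N2 L1 larvae (50 per well, 96-well plates) were grown for 48 h at 20°C in K-medium with killed OP50, 1% DMSO and 0.5–200 µM chemical. The COPAS Biosort measured each worm's size as extinction, which was log-transformed and averaged per well. AC50 came from a constrained Hill fit by weighted genetic-algorithm regression on wells with at least 10 worms. Out-of-range values are censored.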

[3] = test system: Caenorhabditis elegans N2; test: lowest effective concentration for larval growth inhibition (size below effect threshold); higher = less potent
Method in brief: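 Worm size was taken as per-worm extinction on the Biosort, log-transformed and turned into well means. The larvae (C. elegans N2, L1 stage, 50 per 96-well) had spent 48 h at 20°C in K-medium with killed bacteria, 1% DMSO and 0.5, 1, 5, 10, 50, 100 or 200 µM chemical. The lowest effective concentration marks the first dose where the plate-adjusted mean size drops under a cutoff and remains under it at every higher dose; the cutoff is 5.665.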

| Structure (SMILES) | mean nematode size ln(EXT) (ln) ([1]; 0.5 µM) | mean nematode size ln(EXT) (ln) ([1]; 1 µM) | mean nematode size ln(EXT) (ln) ([1]; 5 µM) | mean nematode size ln(EXT) (ln) ([1]; 10 µM) | mean nematode size ln(EXT) (ln) ([1]; 50 µM) | mean nematode size ln(EXT) (ln) ([1]; 100 µM) | mean nematode size ln(EXT) (ln) ([1]; 200 µM) | AC50 for larval growth inhibition [2] | lowest effective concentration [3] |
| --- | --- | --- | --- | --- | --- | --- | --- | --- | --- |
| CCNS(=O)(=O)C(F)(F)C(F)(F)C(F)(F)C(F)(F)C(F)(F)C(F)(F)C(F)(F)C(F)(F)F [Sulfluramid] | 5.81 | 5.84 | 5.48 | 5.23 | 4.32 | 4.08 | 3.24 | 31.4 µM | 5 µM |
| CCc1c(C(=O)NN2CCCCC2)nn(-c2ccc(Cl)cc2Cl)c1-c1ccc(Br)cc1 [Surinabant] | 5.77 | 5.74 | 5.6 | 5.44 | 5.2 | 5.06 | 4.77 | > 200 µM | 5 µM |
| N#CSCSc1nc2ccccc2s1 [TCMTB] | 5.93 | 5.84 | 5.81 | 5.78 | 4.12 | 3.48 | 3.4 | 34 µM | 50 µM |
| CC/C(=C(\c1ccccc1)c1ccc(OCCN(C)C)cc1)c1ccccc1 [Tamoxifen citrate salt] | 5.96 | 6 | 5.82 | 5.01 | 3.9 | 3.68 |  | 10.9 µM | 10 µM |
| CC/C(=C(\c1ccccc1)c1ccc(OCCN(C)C)cc1)c1ccccc1 [Tamoxifen] | 5.79 | 5.76 | 5.65 | 5.67 | 3.84 | 3.93 | 3.53 | 20.8 µM | 50 µM |
| O=C(OC[C@H]1O[C@@H](OC(=O)c2cc(O)c(O)c(OC(=O)c3cc(O)c(O)c(O)c3)c2)[C@H](OC(=O)c2cc(O)c(O)c(OC(=O)c3cc(O)c(O)c(O)c3)c2)[C@@H](OC(=O)c2cc(O)c(O)c(OC(=O)c3cc(O)c(O)c(O)c3)c2)[C@@H]1OC(=O)c1cc(O)c(O)c(OC(=O)c2cc(O)c(O)c(O)c2)c1)c1cc(O)c(O)c(OC(=O)c2cc(O)c(O)c(O)c2)c1 [Tannic acid] | 5.95 | 5.98 | 5.96 | 5.92 | 5.86 | 5.68 | 5.34 | > 200 µM | 200 µM |
| O=C(O)C(O)C(O)C(=O)O (stereo not given) [Tartaric acid] | 5.84 | 5.89 | 5.79 | 5.79 | 5.9 | 5.82 | 5.17 | > 200 µM | 200 µM |
| CC(C)(C)C(O)(CCc1ccc(Cl)cc1)Cn1cncn1 (stereo not given) [Tebuconazole] | 5.91 | 5.93 | 5.86 | 5.81 | 5.26 | 5.21 | 4.07 | 144 µM | 50 µM |
| CCc1ccc(C(=O)NN(C(=O)c2cc(C)cc(C)c2)C(C)(C)C)cc1 [Tebufenozide] | 6.1 | 6.49 | 6.28 | 6.07 | 5.96 | 6.06 | 5.38 | > 200 µM | 200 µM |
